Experimental data taken from patent US10941136B2, “Quinazoline derivative or its salt and pharmaceutical composition comprising the same” (YUHAN CORPORATION, priority 2016, dated 2021).

Tests used:
Assay type in all cases: biochemical
PI3Kα (p110α/p85α)(h) = target: T1, PI3Kα (p110α/p85α)(h) (Homo sapiens, UniProt P42336); assay: PI3K-HTRF in vitro enzyme assay, PI3Kα; conditions: enzyme 0.1 μg/ml
T1 construct: purchased Upstate (Millipore Co) #14-602
Procedure: (§1) The compounds of the present invention were tested for the activity of phosphatidylinositol 3-kinase delta (PI3K) by using a PI3K enzyme-homogeneous time resolved fluorescence (PI3K-HTRF) kit, which is available under Upstate™ kit (Millipore Co, Billerica, Mass., USA). This kit system measures indirectly the amount of PIP3 produced via PI3K by detecting competitive inhibition of fluorescence complex formation.
(§2) There were used three kinds of buffer solutions, i.e., reaction buffer, stop solution, and detection solution. The reaction buffer was prepared by diluting Reaction Buffer (provided in Update™ kit) with distilled water 4 times and adding DTT to a concentration of 5 mM. The stop solution was prepared by combining STOP A and B Solutions (provided in Update™ kit) in a ratio of 3:1. The detection solution was prepared by combining Detection Solution A, B and C (provided in Update™ kit) in a ratio of 1:1:18. A substrate solution and an ATP solution were prepared by diluting the 1 mM PIP2 (phosphatidyl inositol 4,5 bi-phosphate) stock solution (provided in Update™ kit) and 10 mM ATP (Sigma-aldrich Co., St. Louis, Mo., USA) stock solution with the reaction buffer to concentrations of 20 μM and 40 μM, respectively. An enzyme solution was prepared by diluting PI3Kδ (#14˜604; Upstate™ kit) with the substrate solution to the concentration of 0.2 μg/ml (final reaction concentration: 0.1 μg/ml).
(§3) The test groups were prepared by dissolving each compound in 100% DMSO at 40× the final concentration and then diluting 10-fold with the reaction buffer. 5 μl of each diluted test group solution was transferred to a 384 well low flange white flat bottom microplate (#3572, Corning Life Sciences, Lowell, Mass., USA). We performed centrifuge (1 minute, 1000 rpm) and shaking for 2 minutes after every solution-adding step in this experiment. Next, 10 μl of the enzyme solution was added to each well. A mixed solution of the substrate solution (10 μl) plus 5 μl of the 100% DMSO diluted solution without test compound (i.e., 10% DMSO solution) was used as a negative control. And also, a mixed solution of enzyme solution (10 μl) plus 5 μl of the 100% DMSO diluted solution without test compound (i.e., 10% DMSO solution) was used as a positive control. This plate was pre-incubated for 10 minutes in a 25° C. incubator. After the pre-incubation, the phosphorylation reaction was induced by adding 5 μl of the ATP solution and the plate was incubated for 30 minutes in a 25° C. incubator. This enzyme reaction was stopped by 5 μl of the stop solution and then 5 μl of the detection solution was added thereto. To obtain enough fluorescence responses, the plate was incubated for 2 hours in a 25° C. incubator protected from light.
(§4) The time-resolved fluorescence resonance energy transfer (TR-FRET) rate was measured (emission wavelength: 665 nm, 620 nm, excitation wavelength: 313 nm) by using a Flexstation3 Micro plate reader (Molecular Devices, USA). TR-FRET Rate was calculated based on the Equation 1 and using these TR-FRET Rates, % inhibition rate of each compound was calculated based on the Equation 2. The IC50 values, i.e., the concentration of a test compound that inhibits 50% of PI3Kδ activity in vitro, are generated by Softmax program (Molecular Devices, USA). TR-FRET Rate=(Signal at 665 nm emission wavelength/Signal at 620 nm emission wavelength)×10000 <Equation 1> % Inhibition Rate=[(TR-FRET Rate of the test group−TR-FRET Rate of the positive control group)/(TR-FRET Rate of the negative control group−TR-FRET Rate of the positive control group)]×100 <Equation 2>
(§5) The compounds of the present invention were assayed for the activities of PI3K subtypes, i.e., PI3Kα, PI3Kβ and PI3Kγ, using the same procedures as in Experimental Example 1. […]

PI3Kγ (p120γ)(h) = target: T2, PI3Kγ (p120γ)(h) (Homo sapiens, UniProt P48736); assay: PI3K-HTRF in vitro enzyme assay, PI3Kγ; conditions: enzyme 0.4 μg/ml
T2 construct: purchased Upstate (Millipore Co) #14-558
Procedure: as §1, §2, §3, §4, §5

PI3Kδ (p110δ/p85α)(h) = target: T3, PI3Kδ (p110δ/p85α)(h) (Homo sapiens, UniProt O00329); assay: PI3K-HTRF in vitro enzyme assay, PI3Kδ; conditions: enzyme 0.1 μg/ml
T3 construct: purchased Upstate (Millipore Co, Billerica, Mass., USA) #14˜604
Procedure: as §1, §2, §3, §4

PI3Kβ (p110β/p85α)(h) = target: T4, PI3Kβ (p110β/p85α)(h) (Homo sapiens, UniProt P42338); assay: PI3K-HTRF in vitro enzyme assay, PI3Kβ; conditions: enzyme 0.4 μg/ml
T4 construct: purchased Upstate (Millipore Co) #14-603
Procedure: as §1, §2, §3, §4, §5

T4 sequence (P42338 whole entry): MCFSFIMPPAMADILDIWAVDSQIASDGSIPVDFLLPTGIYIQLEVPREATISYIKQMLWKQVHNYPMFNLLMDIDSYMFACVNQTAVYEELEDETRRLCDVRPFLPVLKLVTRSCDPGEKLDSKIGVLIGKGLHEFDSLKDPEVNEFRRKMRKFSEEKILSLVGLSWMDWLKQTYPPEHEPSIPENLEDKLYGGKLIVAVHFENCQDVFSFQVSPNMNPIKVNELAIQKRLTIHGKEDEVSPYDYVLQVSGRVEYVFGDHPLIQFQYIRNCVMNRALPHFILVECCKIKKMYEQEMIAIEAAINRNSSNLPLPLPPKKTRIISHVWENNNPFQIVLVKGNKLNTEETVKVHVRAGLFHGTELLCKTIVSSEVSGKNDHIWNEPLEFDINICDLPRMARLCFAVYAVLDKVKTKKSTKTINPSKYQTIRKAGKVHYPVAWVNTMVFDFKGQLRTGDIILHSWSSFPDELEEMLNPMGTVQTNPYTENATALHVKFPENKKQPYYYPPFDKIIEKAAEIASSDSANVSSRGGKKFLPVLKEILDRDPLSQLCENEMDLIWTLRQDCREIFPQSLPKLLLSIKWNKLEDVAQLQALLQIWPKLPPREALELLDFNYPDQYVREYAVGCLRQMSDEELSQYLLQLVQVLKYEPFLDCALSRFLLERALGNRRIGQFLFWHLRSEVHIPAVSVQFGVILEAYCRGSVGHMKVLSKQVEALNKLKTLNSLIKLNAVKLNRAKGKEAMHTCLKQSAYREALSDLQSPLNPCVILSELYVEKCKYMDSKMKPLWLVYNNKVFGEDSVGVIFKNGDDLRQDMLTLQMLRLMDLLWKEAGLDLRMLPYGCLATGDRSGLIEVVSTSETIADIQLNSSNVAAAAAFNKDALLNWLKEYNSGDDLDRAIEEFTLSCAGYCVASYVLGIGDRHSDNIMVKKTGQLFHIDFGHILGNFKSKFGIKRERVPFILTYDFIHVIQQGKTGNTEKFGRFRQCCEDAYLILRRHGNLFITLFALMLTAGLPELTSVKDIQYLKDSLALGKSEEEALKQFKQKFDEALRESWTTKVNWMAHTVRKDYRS
T4 sequence (P27986 whole entry partner): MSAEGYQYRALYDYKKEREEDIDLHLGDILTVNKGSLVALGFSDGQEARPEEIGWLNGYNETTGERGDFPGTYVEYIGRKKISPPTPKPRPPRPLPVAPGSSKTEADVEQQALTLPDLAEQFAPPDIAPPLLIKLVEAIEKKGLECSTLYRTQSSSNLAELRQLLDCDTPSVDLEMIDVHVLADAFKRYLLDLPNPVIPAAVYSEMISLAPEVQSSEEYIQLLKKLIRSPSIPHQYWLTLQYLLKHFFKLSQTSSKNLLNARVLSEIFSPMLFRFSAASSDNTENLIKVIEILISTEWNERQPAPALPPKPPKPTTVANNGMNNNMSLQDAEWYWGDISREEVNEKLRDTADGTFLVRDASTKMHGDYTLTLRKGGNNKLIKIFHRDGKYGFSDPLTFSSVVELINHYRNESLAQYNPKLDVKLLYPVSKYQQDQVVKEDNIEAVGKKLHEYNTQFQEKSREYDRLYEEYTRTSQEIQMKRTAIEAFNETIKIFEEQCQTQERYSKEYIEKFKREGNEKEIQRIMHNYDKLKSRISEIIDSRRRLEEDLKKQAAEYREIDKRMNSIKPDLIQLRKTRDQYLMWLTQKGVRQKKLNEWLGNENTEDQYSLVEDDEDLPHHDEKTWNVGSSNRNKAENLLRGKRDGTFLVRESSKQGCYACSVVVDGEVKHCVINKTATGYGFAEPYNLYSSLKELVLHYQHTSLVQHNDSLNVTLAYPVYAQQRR
T1 sequence (P42336 whole entry): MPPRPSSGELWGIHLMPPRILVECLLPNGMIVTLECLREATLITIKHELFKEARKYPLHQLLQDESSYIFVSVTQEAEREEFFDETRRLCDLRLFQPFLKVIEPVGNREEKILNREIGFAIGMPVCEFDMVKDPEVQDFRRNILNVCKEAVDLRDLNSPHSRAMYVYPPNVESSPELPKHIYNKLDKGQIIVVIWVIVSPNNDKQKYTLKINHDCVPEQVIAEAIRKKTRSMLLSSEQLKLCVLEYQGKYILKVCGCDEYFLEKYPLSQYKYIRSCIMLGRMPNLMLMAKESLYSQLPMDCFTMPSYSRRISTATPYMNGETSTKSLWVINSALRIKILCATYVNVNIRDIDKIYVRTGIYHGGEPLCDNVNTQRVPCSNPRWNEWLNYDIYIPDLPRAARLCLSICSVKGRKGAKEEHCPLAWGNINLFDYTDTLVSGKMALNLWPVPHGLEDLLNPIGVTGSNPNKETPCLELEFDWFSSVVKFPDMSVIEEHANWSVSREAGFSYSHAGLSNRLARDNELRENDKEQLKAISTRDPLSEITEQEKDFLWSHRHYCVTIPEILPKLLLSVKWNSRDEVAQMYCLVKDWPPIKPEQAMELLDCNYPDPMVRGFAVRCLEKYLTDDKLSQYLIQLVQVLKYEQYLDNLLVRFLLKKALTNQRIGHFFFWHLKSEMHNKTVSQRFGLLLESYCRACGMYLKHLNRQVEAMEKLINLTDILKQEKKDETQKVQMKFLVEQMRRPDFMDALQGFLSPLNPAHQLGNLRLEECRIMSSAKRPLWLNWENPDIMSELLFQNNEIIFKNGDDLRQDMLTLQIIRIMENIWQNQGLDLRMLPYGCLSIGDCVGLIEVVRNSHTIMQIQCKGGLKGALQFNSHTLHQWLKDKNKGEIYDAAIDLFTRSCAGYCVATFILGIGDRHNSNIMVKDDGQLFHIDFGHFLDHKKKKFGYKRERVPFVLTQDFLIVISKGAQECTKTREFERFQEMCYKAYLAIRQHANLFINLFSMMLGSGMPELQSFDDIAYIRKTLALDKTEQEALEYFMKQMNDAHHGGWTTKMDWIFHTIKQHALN
T1 sequence (P27986 whole entry partner): as the sequence (P27986 whole entry partner) above
T2 sequence (P48736 whole entry): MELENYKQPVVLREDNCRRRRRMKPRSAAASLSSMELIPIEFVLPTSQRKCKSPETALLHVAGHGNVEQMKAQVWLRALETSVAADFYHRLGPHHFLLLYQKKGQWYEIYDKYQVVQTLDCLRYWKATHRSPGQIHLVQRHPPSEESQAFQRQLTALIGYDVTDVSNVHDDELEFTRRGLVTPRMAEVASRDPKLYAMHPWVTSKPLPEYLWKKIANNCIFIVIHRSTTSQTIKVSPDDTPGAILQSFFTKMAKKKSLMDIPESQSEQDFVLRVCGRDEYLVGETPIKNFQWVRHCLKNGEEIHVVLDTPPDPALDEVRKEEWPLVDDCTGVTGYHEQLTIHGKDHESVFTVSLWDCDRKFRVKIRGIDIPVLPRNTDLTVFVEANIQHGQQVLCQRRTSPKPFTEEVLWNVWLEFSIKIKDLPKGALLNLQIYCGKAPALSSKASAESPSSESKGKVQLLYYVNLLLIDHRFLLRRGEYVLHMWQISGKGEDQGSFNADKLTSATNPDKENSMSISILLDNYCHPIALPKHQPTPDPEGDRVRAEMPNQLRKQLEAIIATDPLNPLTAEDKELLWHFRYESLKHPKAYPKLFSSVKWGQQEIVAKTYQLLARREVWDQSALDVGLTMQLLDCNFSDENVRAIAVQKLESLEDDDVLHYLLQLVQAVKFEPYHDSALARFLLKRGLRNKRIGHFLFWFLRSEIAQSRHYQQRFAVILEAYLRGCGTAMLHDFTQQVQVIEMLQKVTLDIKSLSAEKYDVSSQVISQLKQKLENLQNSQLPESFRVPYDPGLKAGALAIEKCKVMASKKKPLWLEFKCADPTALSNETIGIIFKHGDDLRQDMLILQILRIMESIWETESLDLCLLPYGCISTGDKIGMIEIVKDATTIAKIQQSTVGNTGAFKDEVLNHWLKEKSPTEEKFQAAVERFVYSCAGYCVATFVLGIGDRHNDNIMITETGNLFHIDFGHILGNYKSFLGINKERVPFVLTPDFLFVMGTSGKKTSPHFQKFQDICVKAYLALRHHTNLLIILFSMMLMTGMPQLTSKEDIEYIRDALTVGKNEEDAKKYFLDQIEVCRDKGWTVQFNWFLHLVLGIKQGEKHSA
T3 sequence (O00329 whole entry): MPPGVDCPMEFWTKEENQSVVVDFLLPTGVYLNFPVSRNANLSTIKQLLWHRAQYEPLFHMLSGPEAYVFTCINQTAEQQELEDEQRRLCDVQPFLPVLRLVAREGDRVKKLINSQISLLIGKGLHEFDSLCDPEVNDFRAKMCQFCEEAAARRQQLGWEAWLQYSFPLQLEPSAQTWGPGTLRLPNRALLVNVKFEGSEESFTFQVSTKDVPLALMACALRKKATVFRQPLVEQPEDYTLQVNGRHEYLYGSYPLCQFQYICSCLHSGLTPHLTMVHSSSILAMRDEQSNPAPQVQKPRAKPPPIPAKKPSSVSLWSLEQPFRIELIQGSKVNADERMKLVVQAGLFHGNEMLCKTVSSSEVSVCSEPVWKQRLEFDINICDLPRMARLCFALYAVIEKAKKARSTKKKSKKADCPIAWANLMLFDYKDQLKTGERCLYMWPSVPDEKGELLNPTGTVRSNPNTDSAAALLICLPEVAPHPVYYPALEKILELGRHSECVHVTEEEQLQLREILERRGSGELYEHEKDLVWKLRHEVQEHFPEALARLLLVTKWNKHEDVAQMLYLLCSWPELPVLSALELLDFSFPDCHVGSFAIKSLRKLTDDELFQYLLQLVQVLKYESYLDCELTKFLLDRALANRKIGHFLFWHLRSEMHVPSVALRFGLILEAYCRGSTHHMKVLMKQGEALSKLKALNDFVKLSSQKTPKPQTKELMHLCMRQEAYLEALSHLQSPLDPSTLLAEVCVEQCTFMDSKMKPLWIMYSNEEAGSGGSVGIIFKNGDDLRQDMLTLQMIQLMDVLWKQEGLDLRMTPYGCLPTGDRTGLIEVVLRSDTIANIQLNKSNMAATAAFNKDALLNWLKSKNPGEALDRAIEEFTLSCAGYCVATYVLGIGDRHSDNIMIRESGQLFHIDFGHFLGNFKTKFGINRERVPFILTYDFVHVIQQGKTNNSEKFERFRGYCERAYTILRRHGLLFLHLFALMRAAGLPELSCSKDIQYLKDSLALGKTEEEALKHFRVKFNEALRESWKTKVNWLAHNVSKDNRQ
T3 sequence (P27986 whole entry partner): as the sequence (P27986 whole entry partner) above

| Structure (SMILES) | IC50 (PI3Kα (p110α/p85α)(h)) [nM] | IC50 (PI3Kγ (p120γ)(h)) [nM] | IC50 (PI3Kδ (p110δ/p85α)(h)) [nM] | IC50 (PI3Kβ (p110β/p85α)(h)) [nM] |
| --- | --- | --- | --- | --- |
| CCC[C@H](Nc1ncnc2ccc(C#N)cc12)c1nc2cccc(-c3cnc(OCC)nc3)c2c(=O)n1-c1ccccc1 [Example 11, (S)-4-((1-(5-(2-ethoxypyrimidin-5-yl)-4-oxo-3-phenyl-3,4-dihydroquinazolin-2-yl)butyl)amino)quinazoline-6-carbonitrile] | 4740 | 432 | 16 | 8950 |
| C[C@H](Nc1ncnc2ccc(C#N)cc12)c1cc2cccc(-c3cnc(C4CC4)nc3)c2c(=O)n1-c1ccccc1 [Example 37, (S)-4-((1-(8-(2-cyclopropylpyrimidin-5-yl)-1-oxo-2-phenyl-1,2-dihydroisoquinolin-3-yl)ethyl)amino)quinazoline-6-carbonitrile] | 418 | 67 | 10 | 8760 |
| CCOc1ncc(-c2cccc3nc([C@H](C)Nc4ncnc5ccc(C#N)cc45)n(C4CC4)c(=O)c23)cn1 [Example 19, (S)-4-((1-(3-cyclopropyl-5-(2-ethoxypyrimidin-5-yl)-4-oxo-3,4-dihydroquinazolin-2-yl)ethyl)amino)quinazoline-6-carbonitrile] | 2020 | 593 | 21 | 6730 |
| C[C@H](Nc1ncnc2ccc(C#N)cc12)c1nc2cccc(-c3cnc(N)nc3)c2c(=O)n1-c1ccccc1 [Example 2, (S)-4-((1-(5-(2-aminopyrimidin-5-yl)-4-oxo-3-phenyl-3,4-dihydroquinazolin-2-yl)ethyl)amino)quinazoline-6-carbonitrile] | 598 | 117 | 4 | 6710 |
| CCC[C@H](Nc1ncnc2ccc(C#N)cc12)c1nc2cccc(-c3cnc(N)nc3)c2c(=O)n1-c1ccccc1 [Example 12, (S)-4-((1-(5-(2-aminopyrimidin-5-yl)-4-oxo-3-phenyl-3,4-dihydroquinazolin-2-yl)butyl)amino)quinazoline-6-carbonitrile] | 621 | 108 | 6 | 3060 |
| CC[C@H](Nc1ncnc2ccc(C#N)cc12)c1nc2cccc(-c3cncnc3)c2c(=O)n1C1CC1 [Example 20, (S)-4-((1-(3-cyclopropyl-4-oxo-5-(pyrimidin-5-yl)-3,4-dihydroquinazolin-2-yl)propyl)amino)quinazoline-6-carbonitrile] | 2440 | 819 | 15 | 8950 |

Second part, the molecule after the results:

| IC50 (PI3Kα (p110α/p85α)(h)) [nM] | IC50 (PI3Kγ (p120γ)(h)) [nM] | IC50 (PI3Kδ (p110δ/p85α)(h)) [nM] | IC50 (PI3Kβ (p110β/p85α)(h)) [nM] | Structure (SMILES) |
| --- | --- | --- | --- | --- |
| 673 | 93 | 25 | 5310 | C[C@H](Nc1ncnc2ccc(C#N)cc12)c1cc2cccc(-c3cnc(N(C)C)nc3)c2c(=O)n1-c1ccccc1 [Example 35, (S)-4-((1-(8-(2-(dimethylamino)pyrimidin-5-yl)-1-oxo-2-phenyl-1,2-dihydroisoquinolin-3-yl)ethyl)amino)quinazoline-6-carbonitrile] |
| 635 | 67 | 26 | 9820 | Cc1ncc(-c2cccc3cc([C@H](C)Nc4ncnc5ccc(C#N)cc45)n(-c4ccc(F)cc4)c(=O)c23)cn1 [Example 38, (S)-4-((1-(2-(4-fluorophenyl)-8-(2-methylpyrimidin-5-yl)-1-oxo-1,2-dihydroisoquinolin-3-yl)ethyl)amino)quinazoline-6-carbonitrile] |
| 3420 | 465 | 17 | 7500 | CCC[C@H](Nc1ncnc2ccc(C#N)cc12)c1nc2cccc(-c3cnc(OC)nc3)c2c(=O)n1-c1ccccc1 [Example 10, (S)-4-((1-(5-(2-methoxypyrimidin-5-yl)-4-oxo-3-phenyl-3,4-dihydroquinazolin-2-yl)butyl)amino)quinazoline-6-carbonitrile] |
